pEC50: −log10 of the molar value.
What follows are compounds tested on HT-1080 cells (assay: HT-1080 cell viability assay (ferroptosis induced by RSL3, Cell Titer-Glo)). Conditions: Homo sapiens, HT-1080, 20 h, ferroptosis inducer RSL3, 20 hours, ferroptosis inhibitory activity, Table 2.
Format: cell-based
How it was run: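 EC50 fitted by sigmoidal dose-response regression on luminescent viability data normalized to untreated cells. Compounds ran as a 10-point, 3-fold series from 1.1 μM alongside RSL3 for 20 hours, after overnight seeding.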

pEC50	SMILES
7.00 to 10.00	Cc1cc(NC[C@H]2CC[C@H](N)CC2)cc(C)c1N1CC(C)OC(C)C1 (some centres unmarked) [Compound 451, (((1r,4r)-4-aminocyclohexyl)methyl)-4-(2,6-dimethylmorpholino)-3,5-dimethylaniline]
7.00 to 10.00	Cc1c(NC[C@H]2CC[C@H](N)CC2)ccc(N2CC(C)OC(C)C2)c1C (some centres unmarked) [Compound 452, N-(((1r,4r)-4-aminocyclohexyl)methyl)-4-(2,6-dimethylmorpholino)-2,3-dimethylaniline]
7.00 to 10.00	Cc1cc(N2CC(C)OC(C)C2)c(C)cc1NC[C@H]1CC[C@H](N)CC1 (some centres unmarked) [Compound 453, N-(((1r,4r)-4-aminocyclohexyl)methyl)-4-(2,6-dimethylmorpholino)-2,5-dimethylaniline]
7.00 to 10.00	N[C@H]1CCC[C@H]1Nc1ccc(N2CCC(C(F)(F)F)CC2)cc1 [Compound 454, (1R, 2S)-N1-(4-(4-(trifluoromethyl)piperidin-1-yl)phenyl)cyclopentane-1.2-diamine]
6.00 to 7.00	CC1CN(c2ccc(NC3CCC(N)CC3)cc2F)CC(C)O1 (centres unmarked) [Compound 456, N1-(4-(2,6-dimethylmorpholino)-3-fluorophenyl)cyclohexane-1,4-diamine]
6.00 to 7.00	CC1CN(c2ccc(NC3CC4(CC(N)C4)C3)cc2F)CC(C)O1 (centres unmarked) [Compound 457, N2-(4-(2,6-dimethylmorpholino)-3-fluorophenyl)spiro[3.3]heptane-2,6-diamine]
6.00 to 7.00	CC1CN(c2ccc(NC3CCC(C)(N)CC3)cc2F)CC(C)O1 (centres unmarked) [Compound 458, N1-(4-(2,6-dimethylmorpholino)-3-fluorophenyl)-4-methylcyclohexane-1,4-diamine]
7.00 to 10.00	COC1(C(F)(F)F)CCN(c2ccc(NC[C@H]3CC[C@H](N)CC3)cc2)CC1 [Compound 459, N-(((1r,4r)-4-aminocyclohexyl)methyl)-4-(4-methoxy-4-(trifluoromethyl)piperidin-1-yl)aniline]
7.00 to 10.00	CC1CN(c2ccc(NC3C[C@H]4CC(N)C[C@H]4C3)cc2F)CC(C)O1 (stereo partly drawn) [Compound 460, (3aR, 6aS)-N2-(4-(2,6-dimethylmorpholino)-3-fluorophenyl) octahydropentalene-2,5-diamine]
7.00 to 10.00	CC1CN(c2ccc(NC3CC4(CC(N)C4)C3)c(F)c2)CC(C)O1 (centres unmarked) [Compound 461, N2-(4-(2,6-dimethylmorpholino)-2-fluorophenyl)spiro[3.3]heptane-2,6-diamine]
5.00 to 6.00	CC1CN(c2ccc(NC3CC(N)C3)c(F)c2)CC(C)O1 (centres unmarked) [Compound 462, N1-(4-(2,6-dimethylmorpholino)-2-fluorophenyl)cyclobutane-1,3-diamine]
7.00 to 10.00	Cc1cc(N2CC(C)OC(C)C2)ccc1NC1CC2(CC(N)C2)C1 (centres unmarked) [Compound 463, N2-(4-(2,6-dimethylmorpholino)-2-methylphenyl)spiro[3.3]heptane-2,6-diamine]
7.00 to 10.00	Cc1cc(NC[C@H]2CC[C@H](N)CC2)cc(F)c1N1CC(C)OC(C)C1 (some centres unmarked) [Compound 464, N-(((1r,4r)-4-aminocyclohexyl)methyl)-4-(2,6-dimethylmorpholino)-3-fluoro-5-methylaniline]
7.00 to 10.00	Cc1cc(N2CCCOCC2)ccc1NC1CC2(CC(N)C2)C1 (centres unmarked) [Compound 465, N2-(2-methyl-4-(1,4-oxazepan-4-yl)phenyl)spiro[3.3]heptane-2,6-diamine]
6.00 to 7.00	CC1CN(c2ccc(NC[C@H]3CC[C@H](N)CC3)c(C(F)(F)F)c2)CC(C)O1 (some centres unmarked) [Compound 466, N-(((1r,4r)-4-aminocyclohexyl)methyl)-4-(2,6-dimethylmorpholino)-2-(trifluoromethyl)aniline]
7.00 to 10.00	CC1CN(c2ccc(NC[C@H]3CC[C@H](N)CC3)cc2)CC(C)N1CC(F)(F)F (some centres unmarked) [Compound 467, N-(((1r,4r)-4-aminocyclohexyl)methyl)-4-(3,5-dimethyl-4-(2,2,2-trifluoroethyl)piperazin-1-yl)aniline]
7.00 to 10.00	CC1CN(c2ccc(NC[C@H]3CC[C@H](N)CC3)cc2C#N)CC(C)O1 (some centres unmarked) [Compound 468, 5-((((1r,4r)-4-aminocyclohexyl)methyl)amino)-2-(2,6-dimethylmorpholino)-benzonitrile]
6.00 to 7.00	Cc1c(N2CC(C)OC(C)C2)ccc(NC[C@H]2CC[C@H](N)CC2)c1F (some centres unmarked) [Compound 469, N-(((1r,4r)-4-aminocyclohexyl)methyl)-4-(2,6-dimethylmorpholino)-2-fluoro-3-methylaniline]
7.00 to 10.00	CCOCCOC1CCN(c2ccc(NC3CC4(CC(N)C4)C3)c(C)c2)CC1 (centres unmarked) [Compound 470, N2-(4-(4-(2-ethoxyethoxy)piperidin-1-yl)-2-methylphenyl)spiro[3.3]heptane-2,6-diamine]
7.00 to 10.00	CCOC1CCN(c2ccc(NC3CC4(CC(N)C4)C3)c(C)c2)CC1 (centres unmarked) [Compound 471, N2-(4-(4-ethoxypiperidin-1-yl)-2-methylphenyl)spiro[3.3]heptane-2,6-diamine]
7.00 to 10.00	N[C@H]1CC[C@H](CNc2ccc(N3CC4CCC(C3)O4)c(F)c2)CC1 [Compound 472, N-(((1r,4r)-4-aminocyclohexyl)methyl)-4-(8-oxa-3-azabicyclo[3.2.1]octan-3-yl)-3-fluoroaniline]

pEC50	SMILES
7.00 to 10.00	COCCOc1cc(NC2CCC(N)CC2)ccc1N1CCC(C(F)(F)F)CC1 (centres unmarked) [Compound 473, N1-(3-(2-methoxyethoxy)-4-(4-(trifluoromethyl)piperidin-1-yl)phenyl)cyclohexane-1,4-diamine]
7.00 to 10.00	Cc1nc(N2CC(C)OC(C)C2)ccc1NC1C2CC3CC1CC(N)(C3)C2 (centres unmarked) [Compound 474A, N^4-(6-(2.6-dimethylmorpholino)-2-methylpyridin-3-yl)adamantane-1,4-diamine]
7.00 to 10.00	Cc1nc(N2CC(C)OC(C)C2)ccc1NC1C2CC3CC1CC(CN)(C3)C2 (centres unmarked) [Compound 475A, N-(5-(aminomethyl)adamantan-2-yl)-6-(2,6-dimethylmorpholino)-2-methylpyridin-3-amine]
7.00 to 10.00	Cc1cc(NC2CC3(CC(N)C3)C2)c(C)nc1N1CC(C)OC(C)C1 (centres unmarked) [Compound 476, N2-(6-(2,6-dimethylmorpholino)-2,5-dimethylpyridin-3-yl)spiro[3.3]heptane-2,6-diamine]
6.00 to 7.00	CC1CN(c2ccc(NC3CC4(CC(N)C4)C3)cn2)CC(C)O1 (centres unmarked) [Compound 477, N2-(6-(2,6-dimethylmorpholino)pyridin-3-yl)spiro[3.3]heptane-2,6-diamine]
7.00 to 10.00	C[C@H]1CN(c2ccc(NC[C@H]3CC[C@H](N)CC3)cc2F)C[C@H](C)O1 [Compound 478, N-(((1r,4S)-4-aminocyclohexyl)methyl)-4-((2S,6S)-2,6-dimethylmorpholino)-3-fluoroaniline]
7.00 to 10.00	Cc1nc(N2C[C@H](C)O[C@@H](C)C2)ccc1NC1CC2(CC(N)C2)C1 (stereo partly drawn) [Compound 479, N2-(6-((2S,6S)-2,6-dimethylmorpholino)-2-methylpyridin-3-yl)spiro[3.3]heptane-2,6-diamine]
6.00 to 7.00	CC1CN(c2cc(F)c(NC[C@H]3CC[C@H](N)CC3)cc2F)CC(C)O1 (some centres unmarked) [Compound 481, N-(((1r,4r)-4-aminocyclohexyl)methyl)-4-(2,6-dimethylmorpholino)-2,5-difluoroaniline]
7.00 to 10.00	Cc1cc(N2CC3(COC3)C2)ccc1NC1CC2(CC(N)C2)C1 (centres unmarked) [Compound 482, N2-(2-methyl-4-(2-oxa-6-azaspiro[3.3]heptan-6-yl)phenyl)spiro[3.3]heptane-2,6-diamine]
7.00 to 10.00	CC1CN(c2ccc(NC[C@H]3CC[C@H](N)CC3)c(Cl)c2)CC(C)O1 (some centres unmarked) [Compound 483, N-(((1r,4r)-4-aminocyclohexyl)methyl)-2-chloro-4-(2,6-dimethylmorpholino) aniline]
5.00 to 6.00	CC1CN(c2ccc(NC[C@H]3CC[C@H](N)CC3)c(C#N)c2)CC(C)O1 (some centres unmarked) [Compound 484, 2-((((1r,4r)-4-aminocyclohexyl)methyl)amino)-5-(2,6-dimethylmorpholino) benzonitrile]
7.00 to 10.00	NC1CCC(Nc2ccc(N3CCC(C(F)(F)F)CC3)cc2OCCO)CC1 (centres unmarked) [Compound 485, 2-(2-((4-aminocyclohexyl)amino)-5-(4-(trifluoromethyl)piperidin-1-yl)phenoxy) ethan-1-ol]
7.00 to 10.00	Cc1nc(N2CC3CCC(C2)O3)ccc1NC1CC2(CC(N)C2)C1 (centres unmarked) [Compound 486, N2-(6-(8-oxa-3-azabicyclo[3.2.1]octan-3-yl)-2-methylpyridin-3-yl)spiro[3.3]heptane-2,6-diamine]
6.00 to 7.00	Cc1cc(N2C[C@@H](C)O[C@@H](C)C2)ncc1NC1CC2(CC(N)C2)C1 (stereo partly drawn) [Compound 487, N2-(6-((2S,6R)-2,6-dimethylmorpholino)-4-methylpyridin-3-yl)spiro[3.3]heptane-2,6-diamine]
7.00 to 10.00	Cc1nc(N2C[C@@H](C)O[C@@H](C)C2)ccc1NC1CC2(CC(N)C2)C1 (some centres unmarked) [Compound 488A, N2-(6-(2,6-dimethylmorpholino)-2-methylpyridin-3-yl)spiro[3.3]heptane-2,6-diamine]
7.00 to 10.00	Cc1cc(NC2CC(C(=O)NN)C2)ccc1N1CCC(C)CC1 (centres unmarked) [Compound 489]
7.00 to 10.00	Cc1nc(N2CC(C)OC(C)C2)ccc1NCCC1CCC(N)C1 (centres unmarked) [Compound 490, N-(2-(3-aminocyclopentyl)ethyl)-6-(2,6-dimethylmorpholino)-2-methylpyridin-3-amine]
7.00 to 10.00	Cc1nc(N2CC3CCC2CO3)ccc1NC1CC2(CC(N)C2)C1 (centres unmarked) [Compound 491, N2-(6-(2-oxa-5-azabicyclo[2.2.2]octan-5-yl)-2-methylpyridin-3-yl)spiro[3.3]heptane-2,6-diamine]
7.00 to 10.00	Cc1cc(NC2CCCCC2C(N)=O)ccc1N1CCC(C)CC1 (centres unmarked) [Compound 492, 2-((3-methyl-4-(4-methylpiperidin-1-yl)phenyl)amino)cyclohexane-1-carboxamide]
7.00 to 10.00	Cc1nc(N2CC(C)N(CC(F)(F)F)C(C)C2)ccc1NC1CC2(CC(N)C2)C1 (centres unmarked) [Compound 493, N2-(6-(3,5-dimethyl-4-(2,2,2-trifluoroethyl)piperazin-1-yl)-2-methylpyridin-3-yl)spiro[3.3]heptane-2,6-diamine]
